Results taken from patent US20240423972A1, “CHEMOTHERAPEUTIC BIOADHESIVE PARTICLES WITH IMMUNOSTIMULATORY MOLECULES FOR CANCER TREATMENT” (priority 2021, published 2024).

Tests used:
PDVC57 cells = assay: Control cytotoxicity assay: solutions not aspirated before addition of cells; assay type: cell-based, murine
Protocol: After 48 hours, cell viability was assessed using Cell-Titer Glo. (8D) PDVC7 cells were harvested and seeded on a 96-well plate (5000 cells/well). […] FIG. 8B is a control for assay (8A) in which there is no poly-l-lysine attached to the plate.
A simulated, protein-rich tumor matrix was created by coating a 96 wellplate with 0.01% poly-l-lysine in 1×PBS. […] […] After 48 hours, cell viability was assessed using Cell-Titer Glo. PDVC7 cells were harvested and seeded on a 96-well plate (5000 cells/well). […] After 48 hours, cell viability was assessed using Cell-Titer Glo. A control for assay in which the poly-l-lysine coated plates are incubated with blank (unloaded) NP, free CPT, NNP-CPT or BNP-CPT, but these solutions are not aspirated before the addition of PDVC57 cells.

PDVC57 tumors [1] = assay: In vivo assessment of CPT NP efficacy; details: single dose of 0.25 mg of CPT by intratumoral injection
Protocol: (§1) All animal procedures were conducted in accordance with Yale Institutional Animal Care and Use Committee guidelines. Mice were housed in the Yale Animal Resource Center and afforded free access to food and water. Wild-type C57BL/6J mice were obtained from The Jackson Laboratory. To prepare the animals for tumor transplantation, the dorsal right flank was shaved using electric clippers. PDVC57 cells were harvested, washed, and resuspended in 1×PBS on ice at a concentration of 5.0×10^7 cells per mL. Mice were then anesthetized in an induction chamber with […] in propylene glycol and the dorsal right flank injected intradermally/subcutaneously with 5.0×10^6 cells in 100 μl using a 27-gauge syringe, forming a small bleb at the site of injection.
PDVC57 tumors were induced as described above. When tumors attained a diameter of approximately 5 mm, they were injected with either blank BNPs (1.99 mg/50 μL of PBS), IL-CPT (0.25 mg of CPT/50 μL), NNP-CPT (0.25 mg of CPT/50 μL of PBS), or BNP-CPT (0.25 mg of CPT/50 μL of PBS) using a 27-gauge needle, which was positioned in the center of the tumor. The entire treatment volume was administered intratumorally over 15 s. The needle was then held in this position for 10 s and withdrawn slowly in order to prevent leakage of drug from the injection site.

PDVC57 tumors [2] = assay: Intratumoral CPT retention (CPT recovered from tumors); assay type: in vivo, C57BL/6J mice; details: 240 h (10 days) after intratumoral injection, 0.25 mg CPT
Protocol: as §1
When tumors reached a diameter of about 5 mm, they were treated with either free CPT (0.25 mg of CPT/50 μL of intralipid), NNP-CPT (0.25 mg of CPT/50 μL of PBS), or BNP-CPT (0.25 mg of CPT/50 μL of PBS). Following injection, tumors were harvested and lyophilized at 0, 48, and 240 h. […] The homogenate was centrifuged at 10,000×g for 5 min to pellet residual tumor and debris, the supernatant removed, and CPT quantified using its intrinsic fluorescence as described above.

Compound: CC[C@@]1(O)C(=O)OCc2c1cc1n(c2=O)Cc2cc3ccccc3nc2-1 [free CPT, Camptothecin]
- Killing of PDVC57 (viability) (PDVC57 cells): comparable killing
- Systemic toxicity in pilot studies (PDVC57 tumors [1]): without clinical evidence of systemic toxicity
- percentage of the injected CPT recovered from tumors (PDVC57 tumors [2]): undetectable
